Measurements: ChEMBL document CHEMBL1201862, “PubChem BioAssay data set” (2004)
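Values below derive from 48-hour exposures of cells grown in 96-well plates, with endpoints linearly interpolated between the two concentrations bracketing the appropriate inhibition level. GI50 is the concentration that inhibits growth by half.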 Activity calls are given as the source filed them. Rule as the data show it: active = GI50 up to about 1.1 µM and inactive = higher.

Key:
Test in all cases: growth of human tumour cells (NCI), 48 h
786-0 = system: 786-0
A549 = system: A549
ACHN = system: ACHN
CAKI-1 = system: CAKI-1
CCRF-CEM = system: CCRF-CEM
COLO 205 = system: COLO 205
HOP-62 = system: HOP-62
IGROV-1 = system: IGROV-1
K562 = system: K562
M14 = system: M14
MCF7 = system: MCF7
MDA-MB-435 = system: MDA-MB-435
MOLT-4 = system: MOLT-4
Malme-3M = system: Malme-3M
NCI-H23 = system: NCI-H23
NCI-H460 = system: NCI-H460
NCI/ADR-RES = system: NCI/ADR-RES
OVCAR-4 = system: OVCAR-4
OVCAR-5 = system: OVCAR-5
RPMI-8226 = system: RPMI-8226
RXF 393 = system: RXF 393
SF-268 = system: SF-268
SK-MEL-28 = system: SK-MEL-28
SK-MEL-2 = system: SK-MEL-2
SK-MEL-5 = system: SK-MEL-5
SK-OV-3 = system: SK-OV-3
SNB-75 = system: SNB-75
SR = system: SR
SW-620 = system: SW-620
T47D = system: T47D
U-251 = system: U-251
UACC-62 = system: UACC-62
DU-145 = system: DU-145
EKVX = system: EKVX
HCC 2998 = system: HCC 2998
HCT-116 = system: HCT-116
HCT-15 = system: HCT-15
HT-29 = system: HT-29
KM12 = system: KM12
LOX IMVI = system: LOX IMVI
MDA-N = system: MDA-N
NCI-H522 = system: NCI-H522
OVCAR-3 = system: OVCAR-3
OVCAR-8 = system: OVCAR-8
PC-3 = system: PC-3
SF-295 = system: SF-295
SF-539 = system: SF-539
SN12C = system: SN12C
SNB-19 = system: SNB-19
TK-10 = system: TK-10
UACC-257 = system: UACC-257
UO-31 = system: UO-31

## COc1cc2ccc3ccncc3c2cc1OC
786-0
  GI50: > 10 µM (inactive)
A549
  GI50: > 10 µM (inactive)
ACHN
  GI50: > 10 µM (inactive)
CAKI-1
  GI50: > 10 µM (inactive)
CCRF-CEM
  GI50: > 10 µM (inactive)
COLO 205
  GI50: > 10 µM (inactive)
HOP-62
  GI50: > 10 µM (inactive)
IGROV-1
  GI50: > 10 µM (inactive)
K562
  GI50: > 10 µM (inactive)
M14
  GI50: > 10 µM (inactive)
MCF7
  GI50: > 10 µM (inactive)
MDA-MB-435
  GI50: > 10 µM (inactive)
MOLT-4
  GI50: > 10 µM (inactive)
Malme-3M
  GI50: > 10 µM (inactive)
NCI-H23
  GI50: > 10 µM (inactive)
NCI-H460
  GI50: > 10 µM (inactive)
NCI/ADR-RES
  GI50: > 10 µM (inactive)
OVCAR-4
  GI50: > 10 µM (inactive)
OVCAR-5
  GI50: > 10 µM (inactive)
RPMI-8226
  GI50: > 10 µM (inactive)
RXF 393
  GI50: > 10 µM (inactive)
SF-268
  GI50: > 10 µM (inactive)
SK-MEL-28
  GI50: > 10 µM (inactive)
SK-MEL-2
  GI50: > 10 µM (inactive)
SK-MEL-5
  GI50: > 10 µM (inactive)
SK-OV-3
  GI50: > 10 µM (inactive)
SNB-75
  GI50: > 10 µM (inactive)
SR
  GI50: > 10 µM (inactive)
SW-620
  GI50: > 10 µM (inactive)
T47D
  GI50: > 10 µM (inactive)
U-251
  GI50: > 10 µM (inactive)
UACC-62
  GI50: > 10 µM (inactive)

## COC[C@H]1OC(=O)c2coc3c2[C@@]1(C)C1=C(C3=O)[C@@H]2CCC(=O)[C@@]2(C)C[C@H]1OC(C)=O [WORTMANNIN]
786-0
  GI50: 8.43 µM (inactive)
A549
  GI50: 6.56 µM (inactive)
ACHN
  GI50: 13.6 µM (inactive)
CAKI-1
  GI50: 0.0108 µM (active)
CCRF-CEM
  GI50: 1.38 µM (inactive)
COLO 205
  GI50: 10 µM (inactive)
DU-145
  GI50: 3.34 µM (inactive)
EKVX
  GI50: 9.66 µM (inactive)
HCC 2998
  GI50: 2.16 µM (inactive)
HCT-116
  GI50: 13.4 µM (inactive)
HCT-15
  GI50: 9.91 µM
HOP-62
  GI50: 3.05 µM (inactive)
HT-29
  GI50: 1.97 µM (inactive)
IGROV-1
  GI50: 1.28 µM (inactive)
K562
  GI50: 37.2 µM (inactive)
KM12
  GI50: 11.5 µM (inactive)
LOX IMVI
  GI50: 3.66 µM (inactive)
M14
  GI50: 2.15 µM (inactive)
MCF7
  GI50: 5.66 µM (inactive)
MDA-MB-435
  GI50: 3.25 µM (inactive)
MDA-N
  GI50: 15.1 µM (inactive)
MOLT-4
  GI50: 2.09 µM (inactive)
NCI-H23
  GI50: 35.7 µM (inactive)
NCI-H460
  GI50: 8.95 µM (inactive)
NCI-H522
  GI50: 13.8 µM (inactive)
NCI/ADR-RES
  GI50: 38.8 µM (inactive)
OVCAR-3
  GI50: 4.65 µM (inactive)
OVCAR-5
  GI50: 15 µM (inactive)
OVCAR-8
  GI50: 25 µM (inactive)
PC-3
  GI50: 0.598 µM (active)
RPMI-8226
  GI50: 2.43 µM (inactive)
SF-268
  GI50: 21.4 µM (inactive)
SF-295
  GI50: 2.96 µM (inactive)
SF-539
  GI50: 2.82 µM (inactive)
SK-MEL-28
  GI50: 7.45 µM (inactive)
SK-MEL-2
  GI50: 2.21 µM (inactive)
SK-MEL-5
  GI50: 11.5 µM (inactive)
SN12C
  GI50: 7.14 µM (inactive)
SNB-19
  GI50: 6.38 µM (inactive)
SNB-75
  GI50: 0.323 µM (active)
SR
  GI50: 1.84 µM (inactive)
SW-620
  GI50: 17.7 µM (inactive)
T47D
  GI50: 0.637 µM (active)
TK-10
  GI50: 11.9 µM (inactive)
UACC-257
  GI50: 2.95 µM (inactive)
UACC-62
  GI50: 1.31 µM (inactive)
UO-31
  GI50: 0.665 µM (active)
